The source of these data is ChEMBL document CHEMBL1156824, “Physicochemical space for optimum oral bioavailability: contribution of human intestinal absorption and first-pass elimination” (J Med Chem, 2010).

The species entered for series [1] is Homo sapiens. Nature of the series: Hepatic clearance in human. The settings on record: in vivo.
Series [2] deals with Homo sapiens. Nature of the series: Oral bioavailability in human. The settings on record: in vivo.
A further series is described as follows: clinical. The settings on record: human, in vivo.

Regarding `CNS(=O)(=O)Cc1ccc2[nH]cc(CCN(C)C)c2c1`, the CL in the series listed under Homo sapiens [1] was found to be 15.3 mL/min/kg. In addition, the F_fraction with Homo sapiens [2] is 0.14.
`CCCC(=O)Nc1ccc(OCC(O)CNC(C)C)c(C(C)=O)c1` (stereo unspecified) [ACEBUTOLOL] showed a F_fraction in the series with Homo sapiens [2] of 0.5.
In turn, `CN(C)Cc1nnc2n1-c1ccc(Cl)cc1C(c1ccccc1)=NC2` [ADINAZOLAM] returned a CL in the series listed under Homo sapiens [1] of 3.6 mL/min/kg. This compound yielded a F_fraction in the series on Homo sapiens [2] of 0.39.
Consider `C[C@H](CS)C(=O)N1CCC[C@H]1C(=O)O` [CAPTOPRIL], for which the F_fraction in the series on Homo sapiens [2] is given as 0.62.
In the series filed under Homo sapiens [1], `N[C@@H](C(=O)N[C@@H]1C(=O)N2C(C(=O)O)=C(CSc3c[nH]nn3)CS[C@H]12)c1ccc(O)cc1` [CEFATRIZINE] gave a CL of 0.7 mL/min/kg. This compound also registered a F_fraction in the series with Homo sapiens [2] of 0.75.
In turn, `COc1cccc2c1C(=O)c1c(O)c3c(c(O)c1C2=O)C[C@@](O)(C(=O)CO)C[C@@H]3O[C@H]1C[C@H](N)[C@H](O)[C@H](C)O1` [DOXORUBICIN] registered a CL in the series listed under Homo sapiens [1] of 13.2 mL/min/kg. For the same compound, in the series on Homo sapiens [2], the F_fraction is given as 0.05.
The compound `CCOC(=O)C1=C(C)NC(C)=C(C(=O)OC)C1c1cccc(Cl)c1Cl` (stereo unspecified) [FELODIPINE] returned a F_fraction in the series with Homo sapiens [2] of 0.16.
For the compound `Nc1nc(=O)[nH]cc1F` [FLUCYTOSINE], the CL in the series listed under Homo sapiens [1] came to 0.02 mL/min/kg. In the series on Homo sapiens [2], this compound yielded a F_fraction of 0.84.
As to `NCC1(CC(=O)O)CCCCC1` [GABAPENTIN], the F_fraction in the series with Homo sapiens [2] is on record as 0.6.
In the series listed under Homo sapiens [1], `C[C@H]([C@](O)(Cn1cncn1)c1ccc(F)cc1F)S(C)(=O)=O` [GENACONAZOLE] showed a CL of 0.038 mL/min/kg. Besides, the CL renal in “clinical” is 0.2 mL/min/kg.
For `C[C@@H]1C(=O)O[C@H]2C[C@@]34[C@H]5C[C@@H](C(C)(C)C)[C@]36[C@@H](OC(=O)[C@@H]6O)O[C@@]4(C(=O)O5)[C@]21O` [GINKGOLIDE A], in that order: 0.7 mL/min/kg and 1.7 mL/min/kg.
For `C[C@@H]1C(=O)O[C@H]2[C@H](O)[C@@]34[C@H]5C[C@@H](C(C)(C)C)[C@]36[C@@H](OC(=O)[C@@H]6O)O[C@@]4(C(=O)O5)[C@@]12O` [GINKOLIDE B], in that order: 1.3 mL/min/kg and 1 mL/min/kg.
For `CCC1=C(C)CN(C(=O)NCCc2ccc(S(=O)(=O)NC(=O)N[C@H]3CC[C@H](C)CC3)cc2)C1=O` [GLIMEPIRIDE], in that order: 0.5 mL/min/kg and 0.002 mL/min/kg.
On to `NS(=O)(=O)c1cc2c(cc1C(F)(F)F)NCNS2(=O)=O` [HYDROFLUMETHIAZIDE], for which, in the series listed under Homo sapiens [1], the CL was 0.7 mL/min/kg. The CL renal in “clinical” amounted to 9 mL/min/kg.
Taken in the same sequence, the figures for `NC(=O)NO` [HYDROXYUREA] were 1 mL/min/kg and 0.5 mL/min/kg.
On to `CC(C)Cc1ccc(C(C)C(=O)O)cc1` (stereo unspecified) [IBUPROFEN], for which the F_fraction in the series with Homo sapiens [2] was 0.95.
`O=P1(NCCCl)OCCCN1CCCl` (stereo unspecified) [IFOSFAMIDE]: the CL in the series filed under Homo sapiens [1] is 0.5 mL/min/kg. The same compound gave a CL renal in “clinical” of 0.6 mL/min/kg.
For `Cc1cc(NC(=O)C2=C(O)c3ccccc3S(=O)(=O)N2C)no1` [ISOXICAM], in that order: 0.1 mL/min/kg and 0.0014 mL/min/kg.
With `O=C(c1ccccc1)c1ccc2n1CCC2C(=O)O` (stereo unspecified) [KETOROLAC], the CL in the series filed under Homo sapiens [1] came to 0.2 mL/min/kg. The F_fraction with Homo sapiens [2] is on record as 1.
`C[C@H]1COc2c(N3CCN(C)CC3)c(F)cc3c(=O)c(C(=O)O)cn1c23.C[C@H]1COc2c(N3CCN(C)CC3)c(F)cc3c(=O)c(C(=O)O)cn1c23.O` [LEVOFLOXACIN]: in the series listed under Homo sapiens [1], the CL turned out to be 0.5 mL/min/kg. The F_fraction in the series with Homo sapiens [2] is listed as 0.99.
The compound `COc1ccc2c(c1)N(C[C@H](C)CN(C)C)c1ccccc1S2` [LEVOMEPROMAZINE] showed a CL in the series filed under Homo sapiens [1] of 5.9 mL/min/kg. Also, in “clinical”, the CL renal amounted to 4 mL/min/kg.
`CCCCc1nc(Cl)c(CO)n1Cc1ccc(-c2ccccc2-c2nn[nH]n2)cc1` [LOSARTAN] came in with a CL in the series filed under Homo sapiens [1] of 7.3 mL/min/kg. The compound further came in with a F_fraction with Homo sapiens [2] of 0.36.
`COC(=O)Nc1nc2ccc(C(=O)c3ccccc3)cc2[nH]1` [MEBENDAZOLE]: the CL in the series filed under Homo sapiens [1] is 14.8 mL/min/kg. Further, the CL renal in the series “clinical” worked out at 0.2 mL/min/kg.
Taken in the same sequence, the figures for `COCCc1ccc(OCC(O)CNC(C)C)cc1` (stereo unspecified) [METOPROLOL] were 12.4 mL/min/kg and 0.7 mL/min/kg.
Taken in the same sequence, the figures for `CN1CCN2c3ncccc3Cc3ccccc3C2C1` (stereo unspecified) [MIRTAZAPINE] were 7.7 mL/min/kg and 0.3 mL/min/kg.
Turning to `O=C(NCCN1CCOCC1)c1ccc(Cl)cc1` [MOCLOBEMIDE], in the series listed under Homo sapiens [1], the CL amounted to 10 mL/min/kg. For the same compound, the CL renal in “clinical” stood at 0.1 mL/min/kg.
Taken in the same sequence, the figures for `CC(C)(O)c1ccccc1CC[C@@H](SCC1(CC(=O)O)CC1)c1cccc(/C=C/c2ccc3ccc(Cl)cc3n2)c1` [MONTELUKAST] were 0.7 mL/min/kg and 0.0014 mL/min/kg.
For `CN(C)C(=O)Oc1cccc([N+](C)(C)C)c1.[Br-]` [NEOSTIGMINE BROMIDE], in that order: 3.8 mL/min/kg and 5.4 mL/min/kg.
For `Cc1ccnc2c1NC(=O)c1cccnc1N2C1CC1` [NEVIRAPINE], in that order: 0.3 mL/min/kg and 0.0069 mL/min/kg.
Take `COC(=O)C1=C(C)NC(C)=C(C(=O)OC)C1c1ccccc1[N+](=O)[O-]` [NIFEDIPINE]: in the series on Homo sapiens [2], the F_fraction amounted to 0.5.
As for `O=C1CN=C(c2ccccc2)c2cc([N+](=O)[O-])ccc2N1` [NITRAZEPAM], the CL in the series filed under Homo sapiens [1] worked out at 0.9 mL/min/kg. Also, the CL renal in “clinical” turned out to be 0.0086 mL/min/kg.
Taken in the same sequence, the figures for `Cc1nccn1CC1CCc2c(c3ccccc3n2C)C1=O` (stereo unspecified) [ONDANSETRON] were 5.5 mL/min/kg and 0.3 mL/min/kg.
`NC(=O)CN1CC(O)CC1=O` (stereo unspecified) [OXIRACETAM] had a CL in the series filed under Homo sapiens [1] of 0.1 mL/min/kg. In the series “clinical”, this compound returned a CL renal of 1.7 mL/min/kg.
For the compound `Nc1nc2c(ncn2CCC(CO)CO)c(=O)[nH]1` [PENCICLOVIR], the CL in the series listed under Homo sapiens [1] came to 1.7 mL/min/kg. For the same compound, in the series on Homo sapiens [2], the F_fraction amounted to 0.05.
Regarding `c1ccc(C2(N3CCCCC3)CCCCC2)cc1` [PHENCYCLIDINE], the CL in the series filed under Homo sapiens [1] was 4.3 mL/min/kg. For the same compound, the CL renal in the series “clinical” turned out to be 0.8 mL/min/kg.
For `CCC1(c2ccccc2)C(=O)NC(=O)NC1=O` [PHENOBARBITAL], in that order: 0.0479 mL/min/kg and 0.0151 mL/min/kg.
Taken in the same sequence, the figures for `CC1CCCC(C)N1CCCC(O)(c1ccccc1)c1ccccn1` (stereo unspecified) [PIRMENOL] were 1.1 mL/min/kg and 0.7 mL/min/kg.
Regarding `CCCN(CCC)S(=O)(=O)c1ccc(C(=O)O)cc1` [PROBENECID], the CL in the series listed under Homo sapiens [1] is 0.2 mL/min/kg. The same compound yielded a F_fraction in the series on Homo sapiens [2] of 1.
For the compound `OC(CCN1CCCC1)(c1ccccc1)C1CCCCC1` (stereo unspecified) [PROCYCLIDINE], the CL in the series filed under Homo sapiens [1] amounted to 0.8 mL/min/kg. The compound further yielded a CL renal in “clinical” of 0.043 mL/min/kg.
For `CCN1CCC[C@H]1CNC(=O)c1c(OC)ccc(Br)c1OC` [REMOXIPRIDE], in that order: 1.3 mL/min/kg and 0.4 mL/min/kg.
For `CCOc1cc(CC(=O)N[C@@H](CC(C)C)c2ccccc2N2CCCCC2)ccc1C(=O)O` [REPAGLINIDE], in that order: 7.7 mL/min/kg and 0.1 mL/min/kg.
Consider `CN(C(=O)c1c(O)c2ccccc2n(C)c1=O)c1ccccc1` [ROQUINIMEX], for which, in the series listed under Homo sapiens [1], the CL was 0.1 mL/min/kg. Also, in the series “clinical”, the CL renal came out at 0.0008 mL/min/kg.
`CC(C)c1nc(N(C)S(C)(=O)=O)nc(-c2ccc(F)cc2)c1/C=C/[C@@H](O)C[C@@H](O)CC(=O)O` [ROSUVASTATIN] registered a CL in the series filed under Homo sapiens [1] of 7.7 mL/min/kg. For the same compound, the F_fraction in the series with Homo sapiens [2] worked out at 0.2.
Taken in the same sequence, the figures for `CC(C)NCC(O)c1ccc(NS(C)(=O)=O)cc1` (stereo unspecified) [SOTALOL] were 0.3 mL/min/kg and 0.95.
For `C[C@@H]1CN(c2c(F)c(N)c3c(=O)c(C(=O)O)cn(C4CC4)c3c2F)C[C@H](C)N1` [SPARFLOXACIN], in that order: 2.3 mL/min/kg and 0.92.
In the series with Homo sapiens [2], `O=C1C(CC[S+]([O-])c2ccccc2)C(=O)N(c2ccccc2)N1c1ccccc1` (stereo unspecified) [SULFINPYRAZONE] came in with a F_fraction of 0.93.
On to `Cc1ccc(C(=O)Nc2ccc(S(=O)(=O)O)c3cc(S(=O)(=O)O)cc(S(=O)(=O)O)c23)cc1NC(=O)c1cccc(NC(=O)Nc2cccc(C(=O)Nc3cc(C(=O)Nc4ccc(S(=O)(=O)O)c5cc(S(=O)(=O)O)cc(S(=O)(=O)O)c45)ccc3C)c2)c1` [SURAMIN], for which, in the series filed under Homo sapiens [1], the CL turned out to be 0.0011 mL/min/kg. In the series “clinical”, this compound yielded a CL renal of 0.0046 mL/min/kg.
As for `CCCCCNC(=N)N/N=C/c1c[nH]c2ccc(OC)cc12` [TEGASEROD], the CL in the series listed under Homo sapiens [1] amounted to 17.6 mL/min/kg. The CL renal in “clinical” is 0.4 mL/min/kg.
Taken in the same sequence, the figures for `COc1cc2nc(N3CCN(C(=O)C4CCCO4)CC3)nc(N)c2cc1OC` (stereo unspecified) [TERAZOSIN] were 1 mL/min/kg and 0.1 mL/min/kg.
For `CC(CC(c1ccccc1)c1ccccc1)NC(C)(C)C` (stereo unspecified) [TERODILINE], in that order: 1 mL/min/kg and 0.1 mL/min/kg.
For `CCO[C@@H](Cc1ccc(OCCc2ccc(OS(C)(=O)=O)cc2)cc1)C(=O)O` [TESAGLITAZAR], in that order: 0.032 mL/min/kg and 0.007 mL/min/kg.
Turning to `Cn1c(=O)c2[nH]cnc2n(C)c1=O.O` [THEOPHYLLINE], in the series filed under Homo sapiens [1], the CL amounted to 0.8 mL/min/kg. Further, the CL renal in “clinical” turned out to be 0.1 mL/min/kg.
In the series filed under Homo sapiens [1], `Cc1ccsc1C(=CCCN1CCC[C@@H](C(=O)O)C1)c1sccc1C` [TIAGABINE] gave a CL of 1.6 mL/min/kg. Further, in the series “clinical”, the CL renal was determined as 0.032 mL/min/kg.
For `CCS(=O)(=O)CCn1c([N+](=O)[O-])cnc1C` [TINIDAZOLE], in that order: 0.5 mL/min/kg and 0.1 mL/min/kg.
Taken in the same sequence, the figures for `Cc1cccc(Nc2ccncc2S(=O)(=O)NC(=O)NC(C)C)c1` [TORSEMIDE] were 0.4 mL/min/kg and 0.1 mL/min/kg.
For `COc1cccc(C2(O)CCCCC2CN(C)C)c1` (stereo unspecified) [TRAMADOL], in that order: 5.5 mL/min/kg and 1 mL/min/kg.
`O=c1n(CCCN2CCN(c3cccc(Cl)c3)CC2)nc2ccccn12` [TRAZODONE] gave a CL in the series listed under Homo sapiens [1] of 1.4 mL/min/kg. The CL renal in “clinical” is 0.0018 mL/min/kg.
Taken in the same sequence, the figures for `CC(=O)CC(c1ccccc1)c1c(O)c2ccccc2oc1=O` (stereo unspecified) [WARFARIN] were 0.1 mL/min/kg and 0.0011 mL/min/kg.
`O=C(NCCNCC(O)COc1ccc(O)cc1)N1CCOCC1` (stereo unspecified) [XAMOTEROL] registered a CL in the series listed under Homo sapiens [1] of 1.1 mL/min/kg. For the same compound, the F_fraction with Homo sapiens [2] is listed as 0.05.
